Target: E. coli cysteinyl-tRNA synthetase (EcCysRS) (Escherichia coli, UniProt P21888)
Experiment: aminoacylation of E. coli tRNA-Cys with […]-Cys by purified CysRS
Assay type: biochemical

Chain of E. coli cysteinyl-tRNA synthetase (EcCysRS) (P21888 whole entry): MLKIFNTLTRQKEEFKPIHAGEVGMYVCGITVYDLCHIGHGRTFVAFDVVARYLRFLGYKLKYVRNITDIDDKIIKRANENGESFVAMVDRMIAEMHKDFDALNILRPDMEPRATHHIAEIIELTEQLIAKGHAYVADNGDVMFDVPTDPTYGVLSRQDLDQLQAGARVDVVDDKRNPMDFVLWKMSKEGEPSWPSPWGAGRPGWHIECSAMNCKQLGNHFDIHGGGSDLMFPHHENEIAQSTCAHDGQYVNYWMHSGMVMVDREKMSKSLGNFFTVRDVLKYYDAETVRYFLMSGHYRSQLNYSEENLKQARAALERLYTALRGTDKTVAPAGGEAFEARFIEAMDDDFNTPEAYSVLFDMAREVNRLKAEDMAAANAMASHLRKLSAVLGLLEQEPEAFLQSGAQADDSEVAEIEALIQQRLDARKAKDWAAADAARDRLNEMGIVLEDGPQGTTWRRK

Compound: Nc1ncnc2c1ncn2[C@@H]1O[C@H](COS(=O)(=O)NC(=O)[C@@H](N)CS)[C@@H](O)[C@H]1O [Cys-AMS]
- IC50: < 600 nM

— article PMC5511029 (Journal of molecular biology, 2017)
